Reference: US11786492B2, “Therapeutic agent for phosphodiesterase inhibition and its related disorders” (Novalead Pharma Inc, priority 2017, dated 2023)

Assays:
HaCaT cells [1] = experiment: Cell viability of HaCaT cells, Alamar blue; format: cell-based, human
Protocol: (§1) HaCaT cells were maintained in T-75 cm2 flask in Dulbecco's modified Eagle medium supplemented with FBS (10%), L-glutamine (2 mM), penicillin (100 ug/ml), streptomycin (100 ug/ml) at 37° C. in 5% CO2 incubator. Cell growth was maintained to 70-80% confluence for seeding and vehicle used was 1% DMSO. The cell viability was checked at various time points using Alamar blue and fluorescence readings were taken at excitation of 544 nm and emission of 590 nm.

PDE4B = PDE4B (Homo sapiens, UniProt Q07343); experiment: Fluorescence polarization assay PDE4B; format: biochemical; details: substrate cAMP
Sequence of PDE4B (Q07343 whole entry, species assumed): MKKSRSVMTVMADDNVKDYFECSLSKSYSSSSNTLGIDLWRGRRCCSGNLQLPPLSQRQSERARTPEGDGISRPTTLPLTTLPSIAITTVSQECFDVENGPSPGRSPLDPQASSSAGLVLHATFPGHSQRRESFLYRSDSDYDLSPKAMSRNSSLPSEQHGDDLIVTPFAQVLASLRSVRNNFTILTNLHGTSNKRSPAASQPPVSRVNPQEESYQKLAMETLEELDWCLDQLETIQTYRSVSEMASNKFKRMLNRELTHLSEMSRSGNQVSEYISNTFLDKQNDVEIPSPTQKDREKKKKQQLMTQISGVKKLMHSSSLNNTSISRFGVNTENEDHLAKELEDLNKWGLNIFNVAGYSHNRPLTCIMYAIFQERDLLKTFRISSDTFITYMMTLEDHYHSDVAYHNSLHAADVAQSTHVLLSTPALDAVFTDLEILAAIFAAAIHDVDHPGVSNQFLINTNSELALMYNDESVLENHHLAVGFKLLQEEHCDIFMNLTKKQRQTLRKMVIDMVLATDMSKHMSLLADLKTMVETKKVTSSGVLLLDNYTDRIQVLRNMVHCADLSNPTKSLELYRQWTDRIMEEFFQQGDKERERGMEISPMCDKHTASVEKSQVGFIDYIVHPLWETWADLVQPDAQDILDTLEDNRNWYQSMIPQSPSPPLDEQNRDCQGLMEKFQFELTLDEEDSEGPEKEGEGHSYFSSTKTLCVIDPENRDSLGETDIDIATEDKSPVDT
Protocol: An experiment to check inhibition of various subtypes of the target Phosphodiesterase (PDE) enzyme in in-vitro assay was performed. […] PDE1A, PDE2A, PDE4A, PDE4B, PDE4C, PDE4D, PDE5A, PDE7A, PDE9A, PDE10A.

Human IL-12 = experiment: IL-12 release from stimulated PBMCs, ELISA; format: cell-based; details: IFN-γ+LPS, 18 hrs
Protocol: (§2) Fresh human blood from healthy volunteer was collected in anticoagulant (5 mM) ethylene diamine tetra acetic acid (EDTA) containing tubes. The growth medium used was RPMI-1640 medium (with 3% FBS) and incubated at 37° C. for 60 mins in a 5% CO2 incubator with vehicle used as 1% DMSO. The cell viability was checked at various time points using Alamar blue and fluorescence readings were taken at excitation of 544 nm and emission of 590 nm.
PBMCs were stimulated with different stimulators as follows: • a. Cells were exposed to stimulator LPS at 100 ng/mL for 18 hrs to stimulate TNF-α, IL-6, IFN-γ, IL10, IL-1β • b. Cells were exposed to stimulator IFN-γ+LPS at 100 ng/mL+1 μg/mL for 18 hrs to stimulate IL-12 • c. Cells were exposed to stimulator PMA+Ionomycin at 50 ng/mL+1 μg/mL for 18 hrs to stimulate IL-23, IL-22, IL-17A, IL-17F
After 18 hrs supernatants were collected and centrifuged to remove any cell debris and aliquots were used for ELISA.

human PBMCs = experiment: Cell viability of human PBMCs, Alamar blue; format: cell-based
Protocol: as §2

TNF-α = TNF-α release from stimulated HaCaT cells, ELISA; format: cell-based, human; details: IFN-γ 50 ng/mL, 48 hrs
Protocol: as §1
HaCaT cells were stimulated with different stimulators as follows: • a. Cells were exposed to stimulator LPS at 1 μg/mL for 48 hrs to stimulate IL-1β • b. Cells were exposed to stimulator IFN-γ at 50 ng/mL for 48 hrs to stimulate TNF-α, IL-6
After 48 hrs supernatants were collected and centrifuged to remove any cell debris and aliquots were used for ELISA.

HaCaT cells [2] = experiment: Keratinocyte (HaCaT) proliferation, MTT assay; format: cell-based, human
Protocol: An experiment to check keratinocyte proliferation inhibitory activity of selected compounds of Formula-I was performed to establish its application in skin disorders related to keratinocyte hyper-proliferation. HaCaT cells, a human immortalized cell line derived from keratinocytes, representing hyper-proliferating keratinocytes was investigated for anti-proliferative potential of the selected compounds by MTT assay.

For CC(=O)Oc1ccccc1C(=O)Nc1ncc([N+](=O)[O-])s1 [Nitazoxanide], the “% Viability (±S.E.M.)” value (HaCaT cells [1]; 0.1 μM, 24 hrs) was 89 ± 1%, the “% Viability (±S.E.M.)” value (HaCaT cells [1]; 0.1 μM, 48 hrs) was 99 ± 9% and the “% Viability (±S.E.M.)” value (HaCaT cells [1]; 0.1 μM, 72 hrs) was 103 ± 3%. For the same molecule, the “% Viability (±S.E.M.)” value (HaCaT cells [1]; 1 μM, 24 hrs) was 81 ± 3%, the “% Viability (±S.E.M.)” value (HaCaT cells [1]; 1 μM, 48 hrs) was 86 ± 8% and the “% Viability (±S.E.M.)” value (HaCaT cells [1]; 1 μM, 72 hrs) was 91 ± 2%. The “% Viability (±S.E.M.)” value (HaCaT cells [1]; 10 μM, 24 hrs) was 41 ± 1%, the “% Viability (±S.E.M.)” value (HaCaT cells [1]; 10 μM, 48 hrs) was 40 ± 2% and the “% Viability (±S.E.M.)” value (HaCaT cells [1]; 10 μM, 72 hrs) was 46 ± 3%. For the same molecule, the “% Viability (±S.E.M.)” value (HaCaT cells [1]; 50 μM, 24 hrs) was 18 ± 1%, the “% Viability (±S.E.M.)” value (HaCaT cells [1]; 50 μM, 48 hrs) was 15 ± 2% and the “% Viability (±S.E.M.)” value (HaCaT cells [1]; 50 μM, 72 hrs) was 18 ± 1%. For the same molecule, the “% Viability (±S.E.M.)” value (HaCaT cells [1]; 100 μM, 24 hrs) was 17 ± 1%, the “% Viability (±S.E.M.)” value (HaCaT cells [1]; 100 μM, 48 hrs) was 13 ± 1% and the “% Viability (±S.E.M.)” value (HaCaT cells [1]; 100 μM, 72 hrs) was 17 ± 1%. The “Concentration which exhibited cell viability of 70%” value (HaCaT cells [1]; HaCaT cells, maximum concentration for stimulation study) was 1 µM, the IC50 (PDE4B) was over 500 µM and the “Human IL-12 concentration” value (Human IL-12; 1 μM) was 3892 pg/mL. The “Human IL-12 concentration” value (Human IL-12; 10 μM) was 1500 pg/mL, the “Human IL-12 concentration” value (Human IL-12; 25 μM) was 406 pg/mL and the “Human IL-12 concentration” value (Human IL-12; 50 μM) was 101 pg/mL. For the same molecule, the “% Viability (±S.E.M.)” value (human PBMCs; 0.01 μM, 24 hrs) was 97 ± 1%, the “% Viability (±S.E.M.)” value (human PBMCs; 0.01 μM, 48 hrs) was 106 ± 8% and the “% Viability (±S.E.M.)” value (human PBMCs; 0.01 μM, 72 hrs) was 113 ± 10%. The “% Viability (±S.E.M.)” value (human PBMCs; 1 μM, 24 hrs) was 91 ± 2%, the “% Viability (±S.E.M.)” value (human PBMCs; 1 μM, 48 hrs) was 105 ± 7% and the “% Viability (±S.E.M.)” value (human PBMCs; 1 μM, 72 hrs) was 106 ± 2%. For the same molecule, the “% Viability (±S.E.M.)” value (human PBMCs; 100 μM, 24 hrs) was 76 ± 4%, the “% Viability (±S.E.M.)” value (human PBMCs; 100 μM, 48 hrs) was 42 ± 4% and the “% Viability (±S.E.M.)” value (human PBMCs; 100 μM, 72 hrs) was 11 ± 3%. The “Concentration which exhibited cell viability of 70%” value (human PBMCs; PBMCs, maximum concentration for stimulation study) was 50 µM, the “TNF-α Conc.” value (TNF-α; 0.1 μM) was 3 ± 0.2 pg/mL and the “TNF-α Conc.” value (TNF-α; 0.5 μM) was 2.5 ± 0.5 pg/mL. The “TNF-α Conc.” value (TNF-α; 1 μM) was 2.3 ± 0.4 pg/mL, the “Cell proliferation (% of Control)” value (HaCaT cells [2]; 0.01 μM, 24 h) was 126.3 % of Control and the “Cell proliferation (% of Control)” value (HaCaT cells [2]; 0.01 μM, 48 h) was 113.7 % of Control. The “Cell proliferation (% of Control)” value (HaCaT cells [2]; 0.01 μM, 72 h) was 114.6 % of Control, the “Cell proliferation (% of Control)” value (HaCaT cells [2]; 0.1 μM, 24 h) was 114.3 % of Control and the “Cell proliferation (% of Control)” value (HaCaT cells [2]; 0.1 μM, 48 h) was 115.2 % of Control. The “Cell proliferation (% of Control)” value (HaCaT cells [2]; 0.1 μM, 72 h) was 102.4 % of Control and the “Cell proliferation (% of Control)” value (HaCaT cells [2]; 0.5 μM, 24 h) was 120.3 % of Control.
